Measurements as given in PMC5874716, “Antimicrobial Peptides for Topical Treatment of Osteomyelitis and Implant-Related Infections: Study in the Spongy Bone” (Pharmaceuticals, 2018).
Structures can show the parent of a compound that is named as a salt.

How the values were obtained:
[1] = system: E. faecalis clinical isolate (Motol); assay: microbe, parasite or virus in culture; assay type: cell-based; settings: Enterococcus faecalis, read-out: Antimicrobial Activity MIC, E. f. b
Procedure: (§1) Femur heads (ca. 70 pieces) taken from patients during hip replacement surgery were periodically purchased in the period between 2014–2017 as discarded from the bone tissue bank at University Hospital in Motol, Prague, Czech Republic. The reason for the replacements by artificial prosthesis was the worn out cartilage on the surface of their heads. Bone samples were stored at −80 °C under standard conditions of certified tissue banks. In the laboratory, they were kept at +5 °C overnight and then at room temperature for several hours before they could be used for the experiments. The experiments with this material were approved by the Ethics Committee for Multi-Centric Clinical Trials of the University Hospital Motol, Reference No: EK-655/15. Methicillin-resistant S. aureus (MRSA 6271) ATCC 43300 and P. aeruginosa (5482) ATCC 27853 were purchased from the Czech National Collection of Type Cultures, National Institute of Public Health, Prague, Czech Republic. Methicillin-resistant S. aureus (MRSA (L)) and P. aeruginosa (L) were obtained as multi-resistant clinical isolates from Liberec Regional Hospital, Liberec, Czech Republic. Methicillin-resistant S. aureus (MRSA (M)), E. faecalis and S. epidermidis were obtained as clinical isolates from University Hospital in Motol, Prague. Candida albicans (F7-39/IDE99) came from the mycological collection of the Faculty of Medicine, Palacky University, Olomouc, Czech Republic. C. albicans ATCC MYA-2876, C. tropicalis ATCC 750 and C. glabrata DSY565 were kindly provided by Dr. Hana Sychrová from the Institute of Physiology, Academy of Sciences of the Czech Republic, Prague. Vancomycin hydrochloride, gentamicin sulfate, ceftriaxone disodium salt, amphotericin B, fluconazole, and clotrimazole were obtained from Sigma-Aldrich, Prague, Czech Republic.
(§2) MIC values for peptides were established by observing growth of treated bacteria in HONEYCOMB 100-well microtiter plates (Helsinki, Finland) using a Bioscreen C instrument (Oy Growth Curves, Helsinki, Finland) as previously described. Haemolytic activity of peptides expressed as the concentration of a peptide required for lysis of 50% of human erythrocytes in the assay (LC50) was measured using a Tecan infinite M200 PRO reader (Tecan Austria GmbH, Grödig, Austria). Blood samples for determining haemolytic activity were obtained from healthy volunteers.

MRSA 6271 (ATCC 43300) = assay: microbe, parasite or virus in culture; assay type: cell-based; settings: Staphylococcus aureus, read-out: Antimicrobial Activity MIC, MRSA 6271
Procedure: as §1, §2

[2] = system: MRSA clinical isolate from Liberec Regional Hospital (MRSA (L)); assay: microbe, parasite or virus in culture; assay type: cell-based; settings: Staphylococcus aureus, MRSA, read-out: Antimicrobial Activity MIC, MRSA a
Procedure: as §1, §2

[3] = system: MRSA clinical isolate from University Hospital in Motol (MRSA (M)); assay: microbe, parasite or virus in culture; assay type: cell-based; settings: Staphylococcus aureus, MRSA, read-out: Antimicrobial Activity MIC, MRSA b
Procedure: as §1, §2

[4] = system: P. aeruginosa (5482) ATCC 27853; assay: microbe, parasite or virus in culture; assay type: cell-based; settings: Pseudomonas aeruginosa, ATCC27853, read-out: Antimicrobial Activity MIC, P. a. 5482
Procedure: as §1, §2

[5] = system: P. aeruginosa clinical isolate from Liberec Regional Hospital; assay: microbe, parasite or virus in culture; assay type: cell-based; settings: Pseudomonas aeruginosa, read-out: Antimicrobial Activity MIC, P. a. a
Procedure: as §1, §2

[6] = system: S. epidermidis clinical isolate (Motol); assay: microbe, parasite or virus in culture; assay type: cell-based; settings: Staphylococcus epidermidis, read-out: Antimicrobial Activity MIC, S. e. b
Procedure: as §1, §2

[7] = system: MRSA clinical isolate from University Hospital in Motol (MRSA (M)); assay: Biofilm formation on bone cement (Palacos r) model implants in infected femur head; set-up: species or system Staphylococcus aureus; settings: cements implanted inside infected holes; Palacos r with peptide or antibiotic; 2 days; single experiment, / = two implants
From the text: (§3) The poly(methyl methacrylate)-based bone cement with or without AMPs was implanted either inside infected holes or inside non-infected holes. In the latter case, the microbes infiltrated towards the implant from a hole made between them at roughly equal distance from each (Figure 3). This would simulate the authentic situation in which the pathogens can infect an orthopaedic implant by spreading through the bloodstream or contiguously from areas of infection. We evaluated the experiments on the basis of the amounts of microbes released from the biofilms supposedly formed on the surfaces of the implants that were removed from the infected bone samples.
(§4) The bone samples with bored holes inside were prepared and handled as above. The bone cement (Palacos®r, Hereaus Medical GmbH, Wehrheim, Germany) with AMP incorporated was prepared by swift and thorough mixing of the polymer powder component (poly-methylacrylate, methyl methacrylate, 125 mg) and AMP (10 mg) or antibiotic (10 mg) with the liquid monomer (methyl methacrylate, N,N-dimethyl-p-toluidine, hydroquinone and colorant E141, 70 μL). The resulting elastic paste was pressed using a 2 mL plastic syringe into two bored holes, where it polymerized and solidified. The paste without peptide for filling of the remaining two holes was prepared similarly by mixing the powder component (125 mg) and liquid component (68 μL). […]

E. faecalis = assay: as above; set-up: species or system Enterococcus faecalis; settings: cements implanted inside infected holes; 2 days; single experiment
From the text: as §3, §4

C. tropicalis ATCC 750 = assay: as above; set-up: species or system Candida tropicalis; settings: cements implanted inside infected holes; 2 days; single experiment, / = two implants
From the text: as §3, §4

## CN[C@H](CC(C)C)C(=O)N[C@H]1C(=O)N[C@@H](CC(N)=O)C(=O)N[C@H]2C(=O)N[C@H]3C(=O)N[C@H](C(=O)N[C@H](C(=O)O)c4cc(O)cc(O)c4-c4cc3ccc4O)[C@H](O)c3ccc(c(Cl)c3)Oc3cc2cc(c3O[C@@H]2O[C@H](CO)[C@@H](O)[C@H](O)[C@H]2O[C@H]2C[C@](C)(N)[C@H](O)[C@H](C)O2)Oc2ccc(cc2Cl)[C@H]1O [Vancomycin, Vancomycin hydrochloride, reference compound]
[1]
  MIC: 1.3 µM
MRSA 6271 (ATCC 43300)
  MIC: 0.9 µM
[2]
  MIC: 1.1 µM
[3]
  MIC: 1.1 µM
[4]
  MIC: > 200 µM
[5]
  MIC: > 320 µM
[6]
  MIC: 1.5 µM
[7]
  CFU/Implant, *MRSA b: 4.0 × 10^6 CFU/implant
E. faecalis
  CFU/Implant, *E. f.: 4.0 × 10^6 CFU/implant

## C[C@@H]1[C@H](O)[C@@H](C)/C=C/C=C/C=C/C=C/C=C/C=C/C=C/[C@H](O[C@@H]2O[C@H](C)[C@@H](O)[C@H](N)[C@@H]2O)C[C@@H]2O[C@](O)(C[C@@H](O)C[C@@H](O)[C@H](O)CC[C@@H](O)C[C@@H](O)CC(=O)O[C@H]1C)C[C@H](O)[C@H]2C(=O)O [Amphotericin B, amphotericin B]
C. tropicalis ATCC 750
  CFU/Implant, * C. tropicalis: 1.3 × 10^6 CFU/implant
